In data set [1] the test system is Escherichia coli. Nature of the data set: Antibacterial activity against Escherichia coli KCTC 1682 assessed as reduction in bacterial growth incubated for 18 to 22 hrs by spectrophotometry based broth microdilution method. Type of data set: functional. To be noted: time 18-22 hrs, read-out: MIC100. On the technique in general: In broth dilution the organism is exposed to a series of concentrations in liquid medium.

For data set [2], the system named is Pseudomonas aeruginosa. Briefly: Antibacterial activity against Pseudomonas aeruginosa KCTC 1637 assessed as reduction in bacterial growth incubated for 18 to 22 hrs by spectrophotometry based broth microdilution method. To be noted: time 18-22 hrs, read-out: MIC100. Type of data set: functional.
The test system of data set [3] is Bacillus subtilis. Nature of the data set: Antibacterial activity against Bacillus subtilis KCTC 3068 assessed as reduction in bacterial growth incubated for 18 to 22 hrs by spectrophotometry based broth microdilution method. To be noted: time 18-22 hrs, read-out: MIC100. Type of data set: functional.
Data set [4] concerns Staphylococcus aureus. Briefly: Antibacterial activity against Staphylococcus aureus KCTC 1621 assessed as reduction in bacterial growth incubated for 18 to 22 hrs by spectrophotometry based broth microdilution method. Type of data set: functional. To be noted: time 18-22 hrs, read-out: MIC100.
Data set [5] has as its system Escherichia coli. Briefly: Potency index, ratio of melittin MIC to test compound MIC for antibacterial activity against Escherichia coli KCTC 1682. Type of data set: functional.
Data set [6] has as its system Pseudomonas aeruginosa. Briefly: Potency index, ratio of melittin MIC to test compound MIC for antibacterial activity against Pseudomonas aeruginosa KCTC 1637. Type of data set: functional.
The subject of data set [7] is Erythrocyte. Briefly: Hemolytic activity in sheep RBC at 16 ug/ml measured after 2 hrs by ELISA. Type of data set: cell-based, Ovis aries. To be noted: dose 16 µg/ml. (In general: In an ELISA, binding on a coated surface is turned into a signal by an enzyme label.)
Data set [8] concerns Erythrocyte. Nature of the data set: Hemolytic activity in sheep RBC measured after 2 hrs by ELISA. Type of data set: ADME, cell-based, Ovis aries.
Data set [9] is described as follows: Therapeutic index, ratio of MHC for sheep RBC to geometric mean of peptide MIC for Escherichia coli KCTC 1682. To be noted: sheep red blood cells (erythrocytes), read-out: TI. Type of data set: toxicity.
The nature of data set [10]: Therapeutic index, ratio of MHC for sheep RBC to geometric mean of peptide MIC for Pseudomonas aeruginosa KCTC 1637. Type of data set: toxicity. To be noted: sheep red blood cells (erythrocytes), read-out: TI.
A short description of data set [11]: Therapeutic index, ratio of MHC for sheep RBC to geometric mean of peptide MIC for Bacillus subtilis KCTC 3068. Type of data set: toxicity. To be noted: sheep red blood cells (erythrocytes), read-out: TI.
Data set [12] is described as follows: Therapeutic index, ratio of MHC for sheep RBC to geometric mean of peptide MIC for Staphylococcus aureus KCTC 1621. Type of data set: toxicity. To be noted: sheep red blood cells (erythrocytes), read-out: TI.
Data set [13] deals with MDA-MB-231. Briefly: Inhibition of actin polymerization in human MDA-MB-231 cells assessed as reduction in lamellipodium formation at 20 to 40 uM measured after 6 hrs by Texas Red-conjugated phalloidin staining based fluorescence microscopic analysis. Type of data set: cell-based. To be noted: dose 20-40 µM.
Data set [14] relates to MDA-MB-231. Briefly: Antimigratory activity in human MDA-MB-231 cells assessed as reduction in wound closure at 40 uM measured after 18 to 36 hrs by microscopic analysis. Type of data set: functional, cell-based. To be noted: time 18-36 hrs.
Data set [15] deals with Bacillus subtilis. Nature of the data set: Potency index, ratio of melittin MIC to test compound MIC for antibacterial activity against Bacillus subtilis KCTC 3068. Type of data set: functional.
Data set [16] deals with Staphylococcus aureus. Briefly: Potency index, ratio of melittin MIC to test compound MIC for antibacterial activity against Staphylococcus aureus KCTC 1621. Type of data set: functional.
The test system of data set [17] is Staphylococcus aureus. Briefly: Antimicrobial activity against methicillin-resistant Staphylococcus aureus CCARM 3089 assessed as reduction in microbial growth incubated for 18 to 24 hrs by broth microdilution method. Type of data set: functional. To be noted: time 18-24 hrs.
Data set [18] relates to Staphylococcus aureus. Nature of the data set: Antimicrobial activity against methicillin-resistant Staphylococcus aureus CCARM 3090 assessed as reduction in microbial growth incubated for 18 to 24 hrs by broth microdilution method. Type of data set: functional. To be noted: time 18-24 hrs.
In data set [19] the test system is Staphylococcus aureus. Nature of the data set: Antimicrobial activity against methicillin-resistant Staphylococcus aureus CCARM 3095 assessed as reduction in microbial growth incubated for 18 to 24 hrs by broth microdilution method. Type of data set: functional. To be noted: time 18-24 hrs.
Data set [20] deals with Staphylococcus aureus. Briefly: Potency index, ratio of melittin MIC to test compound MIC for antimicrobial activity against methicillin-resistant Staphylococcus aureus CCARM 3089. Type of data set: functional.
Data set [21] has as its system Staphylococcus aureus. Briefly: Potency index, ratio of melittin MIC to test compound MIC for antimicrobial activity against methicillin-resistant Staphylococcus aureus CCARM 3090. Type of data set: functional.
In data set [22] the test system is Staphylococcus aureus. Briefly: Potency index, ratio of melittin MIC to test compound MIC for antimicrobial activity against methicillin-resistant Staphylococcus aureus CCARM 3095. Type of data set: functional.
For data set [23], the system named is MDA-MB-231. Nature of the data set: Cytotoxicity against human MDA-MB-231 cells assessed as reduction in cell viability at 50 uM measured after 48 hrs by EZCytox cell viability assay. Type of data set: cell-based. To be noted: mda-mb-231, 48 h.
The subject of data set [24] is MDA-MB-231. Briefly: Antiinvasive activity in human MDA-MB-231 cells at 40 uM measured after 16 hrs using crystal violet staining microscopy based Boyden chamber assay. Type of data set: functional, cell-based.
Data set [25] concerns MDA-MB-231. Nature of the data set: Inhibition of cell motility in human MDA-MB-231 cells assessed as reduction in cell migration distance at 40 uM measured at 30 mins interval for 24 hrs by time-lapse […] analysis. Type of data set: functional, cell-based.
For data set [26], the system named is Pseudomonas aeruginosa. Briefly: Potency index, ratio of melittin MIC to test compound MIC for antimicrobial activity against multidrug-resistant Pseudomonas aeruginosa CCARM 2095 assessed as reduction in microbial growth.
Data set [27] concerns Pseudomonas aeruginosa. Nature of the data set: Potency index, ratio of melittin MIC to test compound MIC for antimicrobial activity against multidrug-resistant Pseudomonas aeruginosa CCARM 2109 assessed as reduction in microbial growth.
Data set [28] can be described thus: Hemolytic activity in sheep RBC assessed as hemolysis at 4 ug/ml measured after 2 hrs by ELISA relative to control. Type of data set: ADME, cell-based, Ovis aries, Erythrocyte. To be noted: sheep red blood cells (erythrocytes), at 4 µg/mL, read-out: Activity.

Molecules are shown by their SMILES. In brackets after ≈: the same amount, converted by molar mass. Activity calls are given as the source filed them. No cut-off for these calls is given here.

As for `Cc1cn([C@H]2C[C@H](NC(=O)CC34CC5CC(CC(C5)C3)C4)[C@@H](CNC(=O)CC34CC5CC(CC(C5)C3)C4)O2)c(=O)nc1NCCNC(=N)N`, the MIC was 64 mg/L (≈ 94.5 µM) in the data set on Escherichia coli [1], over 64 mg/L in the data set on Pseudomonas aeruginosa [2], 4 mg/L (≈ 5.91 µM) in the data set on Bacillus subtilis [3] and 4 mg/L (≈ 5.91 µM) with Staphylococcus aureus [4]. The Ratio with Escherichia coli [5] and in the data set on Pseudomonas aeruginosa [6] was 2 each time. Moreover, the Activity entry in the data set with Erythrocyte [7] is “Non-Toxic”. Besides, in the data set on Erythrocyte [8], the MHC worked out at 43 µg/mL. In addition, the selectivity ratio in data set [9], in [10], in data set [11] and in [12] was 0.9 throughout.

Regarding `Cc1cn([C@H]2C[C@H](NC(=O)CC34CC5CC(CC(C5)C3)C4)[C@@H](CNC(=O)CC34CC5CC(CC(C5)C3)C4)O2)c(=O)nc1N(CCCNC(=N)N)CCCNC(=N)N`, the inhibition entry in the data set with MDA-MB-231 [13] is “Active”. In addition, the result with MDA-MB-231 [14], in the data set with MDA-MB-231 [24] and with MDA-MB-231 [25] was Active. The MIC with Escherichia coli [1] was determined as 16 mg/L (≈ 20.3 µM); in the data set on Pseudomonas aeruginosa [2] it was 4 mg/L (≈ 5.06 µM); in the data set with Bacillus subtilis [3], 2 mg/L (≈ 2.53 µM); with Staphylococcus aureus [4], 2 mg/L (≈ 2.53 µM); with Staphylococcus aureus [17] it was 8 mg/L; with Staphylococcus aureus [18], 8 mg/L. The MIC with Staphylococcus aureus [19] was determined as 8 mg/L. In addition, the Ratio in the data set with Pseudomonas aeruginosa [6] came to 4; in the data set on Bacillus subtilis [15] it was 4; in the data set with Staphylococcus aureus [16], 4; in the data set on Staphylococcus aureus [20] it was 2; in the data set with Staphylococcus aureus [21] it was 2; in the data set with Staphylococcus aureus [22], 2. The Ratio with Pseudomonas aeruginosa [26] and in the data set on Pseudomonas aeruginosa [27] was 2 in each case. For the same molecule, the Activity result in the data set on Erythrocyte [7] and in the data set with MDA-MB-231 [23] was “Non-Toxic” throughout. Besides, the MHC in the data set on Erythrocyte [8] amounted to 25 µg/mL. Also, the selectivity ratio in data set [9], in [10], in data set [11] and in data set [12] was 4.2 throughout.

Turning to `Cc1cn([C@H]2C[C@H](NC(=O)CC34CC5CC(CC(C5)C3)C4)[C@@H](CNC(=O)CC34CC5CC(CC(C5)C3)C4)O2)c(=O)nc1N(CCCN)CCCN`, the MIC in the data set with Escherichia coli [1] worked out at 32 mg/L (≈ 45.3 µM); with Pseudomonas aeruginosa [2], 4 mg/L (≈ 5.67 µM); with Bacillus subtilis [3], 2 mg/L (≈ 2.83 µM); in the data set with Staphylococcus aureus [4], 4 mg/L (≈ 5.67 µM). Moreover, the Ratio with Pseudomonas aeruginosa [6] is given as 4; in the data set on Bacillus subtilis [15], 4; in the data set on Staphylococcus aureus [16] it was 2. In the data set with Erythrocyte [7], the Activity entry was “Non-Toxic”. In addition, the MHC in the data set on Erythrocyte [8] is 52 µg/mL. In addition, the selectivity ratio in data set [9], in [10], in data set [11] and in [12] was 5 each time.

Regarding `CC[C@H](C)[C@H](NC(=O)CN)C(=O)NCC(=O)N[C@@H](C)C(=O)N[C@H](C(=O)N[C@@H](CC(C)C)C(=O)N[C@@H](CCCCN)C(=O)N[C@H](C(=O)N[C@@H](CC(C)C)C(=O)N[C@H](C(=O)N[C@H](C(=O)NCC(=O)N[C@@H](CC(C)C)C(=O)N1CCC[C@H]1C(=O)N[C@@H](C)C(=O)N[C@@H](CC(C)C)C(=O)N[C@H](C(=O)N[C@@H](CO)C(=O)N[C@@H](Cc1c[nH]c2ccccc12)C(=O)N[C@H](C(=O)N[C@@H](CCCCN)C(=O)N[C@@H](CCCNC(=N)N)C(=O)N[C@@H](CCCCN)C(=O)N[C@@H](CCCNC(=N)N)C(=O)N[C@@H](CCC(N)=O)C(=O)N[C@@H](CCC(N)=O)C(N)=O)[C@@H](C)CC)[C@@H](C)CC)[C@@H](C)O)[C@@H](C)O)C(C)C)C(C)C` [MELITTIN], in data set [28], the hemolysis at 2 h, 4 ug/ml was determined as 12%. In addition, the MHC in the data set on Erythrocyte [8] stood at 4 µg/mL. In addition, the selectivity ratio in [9], in [10], in data set [11] and in data set [12] was 0.3 throughout.

Turning to `Cc1cn([C@H]2C[C@H](NC(=O)Cc3cccc4ccccc34)[C@@H](CNC(=O)Cc3cccc4ccccc34)O2)c(=O)nc1N(CCCN)CCCN`, the MIC with Escherichia coli [1] is 64 mg/L (≈ 92.8 µM); in the data set on Pseudomonas aeruginosa [2], 8 mg/L (≈ 11.6 µM); in the data set with Bacillus subtilis [3], 4 mg/L (≈ 5.8 µM); in the data set with Staphylococcus aureus [4] it was 16 mg/L (≈ 23.2 µM). For the same molecule, the Ratio came out at 4 in the data set with Escherichia coli [5], 2 in the data set with Pseudomonas aeruginosa [6], 2 in the data set on Bacillus subtilis [15] and 2 with Staphylococcus aureus [16].
